These results are taken from US7893062B2, “Pyrrolidine derivatives as dual NK1/NK3 receptor antagonists” (Hoffmann-La Roche Inc., priority 2007, dated 2011).

Test [1] addresses T1, human NK3 (hNK3) receptor (Homo sapiens, UniProt P29371).
T1 construct: expressed in transfected cells
T1 sequence (P29371 1-465): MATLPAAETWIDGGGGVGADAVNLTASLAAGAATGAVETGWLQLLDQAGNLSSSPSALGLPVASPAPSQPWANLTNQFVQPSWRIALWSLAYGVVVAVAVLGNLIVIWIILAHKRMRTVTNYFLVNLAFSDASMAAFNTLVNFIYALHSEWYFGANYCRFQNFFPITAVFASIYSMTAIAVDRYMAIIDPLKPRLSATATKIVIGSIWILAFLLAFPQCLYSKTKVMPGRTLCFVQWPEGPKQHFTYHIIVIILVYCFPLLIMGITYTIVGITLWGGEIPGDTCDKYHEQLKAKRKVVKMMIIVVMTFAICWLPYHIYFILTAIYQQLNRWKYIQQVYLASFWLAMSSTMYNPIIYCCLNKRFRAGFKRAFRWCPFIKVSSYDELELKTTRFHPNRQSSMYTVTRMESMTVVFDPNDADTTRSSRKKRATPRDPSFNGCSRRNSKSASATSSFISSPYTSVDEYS
The test is described as follows: Recombinant hNK3 receptor affinity, [3H]SR142801 displacement. In kind it is binding. Conditions: recombinant hNK3 membranes, [3H]SR142801 0.3 nM. As for the experimental part: Recombinant human NK3 (hNK3) receptor affinity was determined in a 96 well plate assay, using [^3H]SR142801 (final concentration 0.3 nM) to radiolabel the hNK3 receptor in the presence of 10 concentrations of competing compound or buffer. Non specific binding was determined using 10 μM SB222200. Assay buffer consisted of Tris-HCl (50 mM, pH 7.4), BSA (0.1%), MnCl2 (4 mM) and phosphoramidon (1 μM). Membrane preparations of hNK3 receptors (approximately 2.5 μg/well in a 96 well plate) were used to initiate the incubation for 90 min at room temperature. This assay was terminated by rapid filtration under vacuum through GF/C filters, presoaked for 90 min with PEI (0.3%), with 3×0.5 ml washes of ice-cold Tris buffer (50 mM, pH 7.4) containing 0.1% BSA. The radioactivity retained on the filters was measured by scintillation counting. All assays were performed in duplicate in at least two separate experiments.

For another test, the target named is human NK1 receptor (Homo sapiens, UniProt P25103). The test is described as follows: NK1 receptor affinity, [3H]substance P displacement in CHO cell membranes. The note with it: human NK1 receptor in CHO cells, [3H]substance P 0.6 nM. In kind it is binding. As to the method:
The affinity of test compounds for the NK1 receptor was evaluated at human NK1 receptors in CHO cells infected with the human NK1 receptor (using the Semliki virus expression system) and radiolabelled with [^3H]substance P (final concentration 0.6 nM). Binding assays were performed in HEPES buffer (50 mM, pH 7.4) containing BSA (0.04%) leupeptin (16.8 μg/ml), MnCl2 (3 mM) and phosphoramidon (2 μM). Binding assays consisted of 250 μl of membrane suspension (approximately 1.5 μg/well in a 96 well plate), […] of buffer of displacing agent and 125 μl of [^3H]substance P. Displacement curves were determined with at least seven concentrations of the compound. The assay tubes were incubated for 60 min at room temperature after which time the tube contents were rapidly filtered under vacuum through GF/C filters presoaked for 60 min with PEI (0.3%) with 3×1 ml washes of HEPES buffer (50 mM, pH 7.4). The radioactivity retained on the filters was measured by scintillation counting. All assays were performed in duplicate in at least 2 separate experiments. NK3

For test [2] the following is noted: phase II trial, cited from earlier work.

Sequence of human NK1 receptor (P25103 whole entry): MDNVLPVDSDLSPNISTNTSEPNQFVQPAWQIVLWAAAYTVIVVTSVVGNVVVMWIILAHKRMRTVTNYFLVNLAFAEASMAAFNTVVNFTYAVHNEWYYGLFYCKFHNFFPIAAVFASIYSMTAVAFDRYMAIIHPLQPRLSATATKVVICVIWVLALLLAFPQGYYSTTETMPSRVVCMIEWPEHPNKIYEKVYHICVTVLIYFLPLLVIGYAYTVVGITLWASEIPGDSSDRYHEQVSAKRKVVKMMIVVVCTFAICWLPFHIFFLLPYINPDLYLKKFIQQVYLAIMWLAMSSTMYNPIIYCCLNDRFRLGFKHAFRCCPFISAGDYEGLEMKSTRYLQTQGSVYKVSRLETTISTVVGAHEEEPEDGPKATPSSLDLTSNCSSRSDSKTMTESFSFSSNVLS

For `Cc1cc(F)ccc1[C@@H]1CN(C(=O)N2CCOCC2)C[C@H]1N(C)C(=O)C(C)(C)c1cc(C(F)(F)F)cc(C(F)(F)F)c1` (racemic) [Example 27, rac-2-(3,5-Bis-trifluoromethyl-phenyl)-N-[(3S,4R)-4-(4-fluoro-2-methyl-phenyl)-1-(morpholine-4-carbonyl)-pyrrolidin-3-yl]-N-methyl-isobutyramide], the Ki was found to be 0.276 µM in test [1] and 0.000341 µM on human NK1 receptor.
Taken in the same sequence, the figures for `CN(C(=O)C(C)(C)c1cc(C(F)(F)F)cc(C(F)(F)F)c1)[C@@H]1CN(C(=O)N(CCO)CCO)C[C@H]1c1ccc(F)cc1` (racemic) [Example 21, rac-(3S,4R)-3-{[2-(3,5-Bis-trifluoromethyl-phenyl)-2-methyl-propionyl]-methyl-amino}-4-(4-fluoro-phenyl)-pyrrolidine-1-carboxylic acid bis-(2-hydroxy-ethyl)-amide] were 0.204 µM and 0.00108 µM.
Taken in the same sequence, the figures for `CN(C(=O)C(C)(C)c1cc(Cl)cc(Cl)c1)[C@@H]1CN(C(=O)N2CCN(S(C)(=O)=O)CC2)C[C@H]1c1ccc(F)cc1` (racemic) [Example 23, rac-2-(3,5-Dichloro-phenyl)-N-[(3S,4R)-4-(4-fluoro-phenyl)-1-(4-methanesulfonyl-piperazine-1-carbonyl)-pyrrolidin-3-yl]-N-methyl-isobutyramide] were 0.0924 µM and 0.00112 µM.
Take `CN(C(=O)C(C)(C)c1cc(C(F)(F)F)cc(C(F)(F)F)c1)[C@@H]1CN(C(=O)NCCO)C[C@H]1c1ccc(F)cc1` (racemic) [Example 26, rac-(3S,4R)-3-{[2-(3,5-Bis-trifluoromethyl-phenyl)-2-methyl-propionyl]-methyl-amino}-4-(4-fluoro-phenyl)-pyrrolidine-1-carboxylic acid (2-hydroxy-ethyl)-amide]: the values for the inhibitory constant (Ki) (in test [1]; at human NK1 receptor) were 0.212 µM and 0.000634 µM, respectively.
Regarding `CN(C(=O)C(C)(C)c1cc(C(F)(F)F)cc(C(F)(F)F)c1)[C@@H]1CN(C(=O)N2CCOCC2)C[C@H]1c1ccc(Cl)cc1` (racemic) [Example 2, rac-2-(3,5-Bis-trifluoromethyl-phenyl)-N-[(3S,4R)-4-(4-chloro-phenyl)-1-(morpholine-4-carbonyl)-pyrrolidin-3-yl]-N-methyl-isobutyramide], the Ki turned out to be 0.457 µM in test [1] and 0.00235 µM at human NK1 receptor.
For the compound `CN(C(=O)C(C)(C)c1cc(Cl)cc(Cl)c1)[C@@H]1CN(C(=O)N2CCOCC2)C[C@H]1c1ccc(F)cc1` (racemic) [Example 24, rac-2-(3,5-Dichloro-phenyl)-N-[(3S,4R)-4-(4-fluoro-phenyl)-1-(morpholine-4-carbonyl)-pyrrolidin-3-yl]-N-methyl-isobutyramide], the Ki turned out to be 0.2 µM in test [1] and 0.00192 µM on human NK1 receptor.
As to `CN(C(=O)C(C)(C)c1cc(C(F)(F)F)cc(C(F)(F)F)c1)[C@@H]1CN(C(=O)N2CCN(S(C)(=O)=O)CC2)C[C@H]1c1ccccc1` (racemic) [Example 22, rac-2-(3,5-Bis-trifluoromethyl-phenyl)-N-[(3S,4R)-1-(4-methanesulfonyl-piperazine-1-carbonyl)-4-phenyl-pyrrolidin-3-yl]-N-methyl-isobutyramide], the inhibition constant Ki in test [1] was determined as 0.203 µM; on human NK1 receptor, 0.000875 µM.
The corresponding values for `CN(C(=O)C(C)(C)c1cc(C(F)(F)F)cc(C(F)(F)F)c1)[C@@H]1CN(C(=O)N2CCN(S(C)(=O)=O)CC2)C[C@H]1c1ccc(F)cc1` (racemic) [Example 15, rac-2-(3,5-Bis-trifluoromethyl-phenyl)-N-[(3S,4R)-4-(4-fluoro-phenyl)-1-(4-methanesulfonyl-piperazine-1-carbonyl)-pyrrolidin-3-yl]-N-methyl-isobutyramide] are 0.155 µM and 0.00206 µM.
For the compound `Cc1cc(F)ccc1[C@@H]1CN(C(=O)N2CCN(S(C)(=O)=O)CC2)C[C@H]1N(C)C(=O)C(C)(C)c1cc(C(F)(F)F)cc(C(F)(F)F)c1` (racemic) [Example 28, rac-2-(3,5-Bis-trifluoromethyl-phenyl)-N-[(3S,4R)-4-(4-fluoro-2-methyl-phenyl)-1-(4-methanesulfonyl-piperazine-1-carbonyl)-pyrrolidin-3-yl]-N-methyl-isobutyramide], the Ki stood at 0.137 µM in test [1] and 0.000689 µM at human NK1 receptor.
With `CN(C(=O)C(C)(C)c1cc(Cl)cc(Cl)c1)[C@@H]1CN(C(=O)N2CCN(S(C)(=O)=O)CC2)C[C@H]1c1ccc(Cl)cc1` (racemic) [Example 55, rac-N-[(3S,4R)-4-(4-Chloro-phenyl)-1-(4-methanesulfonyl-piperazine-1-carbonyl)-pyrrolidin-3-yl]-2-(3,5-dichloro-phenyl)-N-methyl-isobutyramide], the figures for the inhibition constant (Ki) (in test [1]; at human NK1 receptor) were 0.03 µM and 0.00316 µM, respectively.
Regarding `CC(=O)N1CCN(C(=O)N2C[C@@H](N(C)C(=O)C(C)(C)c3cc(C(F)(F)F)cc(C(F)(F)F)c3)[C@H](c3ccc(F)cc3)C2)CC1` (racemic) [Example 16, rac-N-[(3S,4R)-1-(4-Acetyl-piperazine-1-carbonyl)-4-(4-fluoro-phenyl)-pyrrolidin-3-yl]-2-(3,5-bis-trifluoromethyl-phenyl)-N-methyl-isobutyramide], the Ki in test [1] amounted to 0.309 µM; at human NK1 receptor, 0.00141 µM.
Take `CC(=O)N(C)C1(c2ccccc2)CCN(CCC[C@]2(c3ccc(Cl)c(Cl)c3)CCCN(C(=O)c3ccccc3)C2)CC1` [SR 142,801, Osanetant]: in test [2] (altered behaviour, delusion, hallucinations, extreme emotions, excited motor activity, incoherent speech), the “activity on positive symptoms of schizophrenia” value was “active”. Also, the “activity in the treatment of negative symptoms of schizophrenia” value in test [2] (depression, anhedonia, social isolation, memory and attention deficits) is “inactive”.
